Like-named read-outs stand apart in the source and are kept apart here.
How the values were obtained:
[1] = Rat CSF distribution after oral administration of APRE (UPLC-MS/MS); conditions: for AUC(0-inf) / AUC(0-t) / Cmax / Tmax / half-life / total amount percentage of CSF/plasma: rat; for AUC(0-inf) / AUC(0-t) / Cmax / Tmax / half-life: CSF, po, 4 g/kg; for total amount percentage of CSF/plasma: (0.48 × AUC0→∞/CSF)/(16 × AUC0→∞/plasma), oral APRE
Method: (§1) Aliquots of 50 μL CSF samples with IS (10 μL, 200 ng/mL) were extracted with 600 μL ethyl acetate.
(§2) The UPLC-MS/MS system consisted of a Shimadzu Nexera UPLC instrument connected to a Shimadzu LCMS-8050 mass spectrometer via the electrospray ionization interface (Shimadzu Corp., Kyoto, Japan). Samples were separated on an ACQUITY UPLC BEH RP18 column (2.1 × 100 mm, 1.7 µm, Waters, Milford, MA, USA) equipped with a BEH RP18 guard column (2.1 × 5 mm, 1.7 µm, Waters, Milford, MA, USA). The column temperature was 30 °C, and the flow rate was 0.4 mL/min. The sample injection volume was 5 µL. The mobile phases consisted of 0.1% (v/v) formic acid in water (A) and ACN (B). […] The precursor ion, product ion, Q1, Q3, CE and DT were optimized.
(§3) The time schedule included 9 time-points, and six rats were sampled at each time-point. The rats were fasted overnight with free access to water before the experiment. APRE was suspended with the normal saline and orally administered to the rats at a single dose of 4 g/kg. The animals had free access to water during the experiment.
(§4) Rats were anesthetized by an intraperitoneal dose of chloral hydrate (350 mg/kg) at 0.25, 0.5, 1, 1.5, 2, 4, 6, 8, 12 h after oral administration of APRE. A dorsal midline cutaneous incision was made, and the muscle at the craniocervical junction was bluntly dissected to expose the atlanto-occipital membrane. The cisterna magna was punctured with a thin syringe needle, and a microinjector connected with the needle was used to collect the interior CSF carefully [27]. Clear CSF was transferred to a clean microtube and frozen at −80 °C until further use. Blood contaminated samples were excluded.
(§5) Results were expressed as the mean ± standard deviation (SD). The UPLC-MS/MS data were processed with Labsolutions 5.65 software (Shimadzu Corp., Kyoto, Japan). The pharmacokinetic parameters were calculated with the Drug and Statistics 2.0 software (Mathematical Pharmacology Professional Committee of China, Shanghai, China).

[2] = Stability of QC samples in rat brain homogenate (freeze-thaw, room temperature); format: physicochemical; conditions: percentage remaining, n = 5; for Stability room temperature: room temperature 24 h; for Stability Freeze-thaw: three freeze-thaw cycles
[3] = Rat brain distribution after oral administration of APRE (UPLC-MS/MS); conditions: for log BBexpt.: log (AUC0→∞/brain/AUC0→∞/plasma), oral APRE; for log BBexpt. / Tmax / half-life / Kp: rat; for AUC0→t / AUC0→∞ / CLz/F / Vz/F: rat brain, oral APRE 4 g/kg, mean ± SD, n = 6; for Tmax / half-life: brain; for Tmax / half-life / Kp: po, 4 g/kg; for Kp: brain/plasma
Method: (§6) Each weighed brain sample was homogenized with a 2-fold volume of normal saline solution. IS solution (10 μL, 200 ng/mL) was added to 300 μL of the homogenate. The mixture was then extracted with a 3-fold volume of ethyl acetate. The mixture was vortexed for 1 min and centrifuged at 16,000× g for 10 min. The supernatant was transferred out and dried under a gentle constant flow of nitrogen. The residue was then dissolved with 100 μL of MeOH and ultrasonically (power 250 W, frequency 40 KHz) extracted for 10 min. After centrifugation at 16,000× g for 10 min, the supernatant was drawn out into a clean vial, and 5 μL of each were injected into the UPLC–MS/MS system for analysis.
(§7) The UPLC-MS/MS system consisted of a Shimadzu Nexera UPLC instrument connected to a Shimadzu LCMS-8050 mass spectrometer via the electrospray ionization interface (Shimadzu Corp., Kyoto, Japan). Samples were separated on an ACQUITY UPLC BEH RP18 column (2.1 × 100 mm, 1.7 µm, Waters, Milford, MA, USA) equipped with a BEH RP18 guard column (2.1 × 5 mm, 1.7 µm, Waters, Milford, MA, USA). The column temperature was 30 °C, and the flow rate was 0.4 mL/min. The sample injection volume was 5 µL. The mobile phases consisted of 0.1% (v/v) formic acid in water (A) and ACN (B). The LC gradient elution program and mass working parameters were the same as our previous report [6]. […] The precursor ion, product ion, Q1, Q3, CE and DT were optimized.
as §3
(§8) Cardiac perfusion was carried out quickly with physiological saline after CSF collection at each time-point. The rat brains were separated, weighed and then stored at −80 °C until treatment.
as §5

in vitro BBB model = test system: in vitro BBB model; design: method as in PMID 26121397; conditions: based on bidirectional Papp values; cited from earlier work
[4] = design: method as in PMID 28654868; conditions: rat plasma, oral APRE; cited from earlier work
[5] = Stability of QC samples in aCSF (freeze-thaw, room temperature); format: physicochemical; conditions: percentage remaining, n = 5; for Stability room temperature: room temperature 24 h; for Stability Freeze-thaw: three freeze-thaw cycles
[6] = rat, in vivo, po
Method: as §6, §7, §3, §8, §5

[7] = rat, in vivo, po; remark: listed apart in the source
Method: as §1, §2, §3, §4, §5

Stability room temperature ([2]; rat brain QC 5 ng/mL) | Stability Freeze-thaw ([2]; rat brain QC 5 ng/mL) | Stability room temperature ([2]; rat brain QC 80 ng/mL) | Stability Freeze-thaw ([2]; rat brain QC 80 ng/mL) | Stability room temperature ([2]; rat brain QC 160 ng/mL) | Stability Freeze-thaw ([2]; rat brain QC 160 ng/mL) | log BBexpt. [3] | AUC0→t [3] | AUC0→∞ [3] | CLz/F [3] | Vz/F [3] | Tmax [3] | half-life [3] | AUC(0-inf) [1] | AUC(0-t) [1] | Cmax [1] | Tmax [1] | half-life [1] | Stability room temperature ([5]; aCSF QC 5 ng/mL) | Stability Freeze-thaw ([5]; aCSF QC 5 ng/mL) | Structure (SMILES) | other results
96.24±7.79% | 101.51±11.81% | 97.77±8.23% | 95.20±9.40% | 96.20±7.07% | 102.98±8.06% | −0.44 | 21.06 ± 8.70 µg·h/kg | 25.06 ± 8.03 µg·h/kg | 301.26 ± 92.33 g/h/kg | 1299.16 ± 842.00 g/kg | 0.29 ± 0.1 h | 2.77 ± 1.15 h | 28.2 ± 3.94 ng·h/mL | 20 ± 3.35 ng·h/mL | 7.65 ± 4.14 ng/mL | 0.38 ± 0.31 h | 7.02 ± 2.51 h | 97.45±4.87% | 95.14±6.53% | CC=C(C)C(=O)OC(C(O)c1cc2ccc(=O)oc2cc1OC)C(C)(C)O (stereo not drawn) [Compound 9, angelol B] | CL in plasma [4]: 110.26 ± 39.27 g/h/kg; t1/2 in plasma [4]: 6.63 ± 4.37 h; total amount percentage of CSF/plasma [1]: greater than 1%; Stability room temperature ([5]; aCSF QC 40 ng/mL): 95.67±3.47%; Stability Freeze-thaw ([5]; aCSF QC 40 ng/mL): 95.36±7.29%; Stability room temperature ([5]; aCSF QC 80 ng/mL): 96.66±9.22%; Stability Freeze-thaw ([5]; aCSF QC 80 ng/mL): 96.89±4.68%
99.12±3.06% | 95.53±4.36% | 101.64±8.78% | 98.42±10.02% | 96.43±4.95% | 98.13±6.85% | – | 1327.91 ± 341.99 µg·h/kg | 2105.63 ± 1100.15 µg·h/kg | 13.96 ± 7.04 g/h/kg | 60.18 ± 25.11 g/kg | 0.35 ± 0.14 h | 5.36 ± 2.15 h | 30.5 ± 1.53 ng·h/mL | 27.7 ± 2.88 ng·h/mL | 4.31 ± 1.49 ng/mL | 2.83 ± 2.84 h | 3.19 ± 1.16 h | 95.92±3.20% | 94.43±7.49% | COc1ccc2ccc(=O)oc2c1CC=C(C)C [Compound 10, osthole] | Stability room temperature ([5]; aCSF QC 40 ng/mL): 94.93±5.05%; Stability Freeze-thaw ([5]; aCSF QC 40 ng/mL): 95.90±8.12%; Stability room temperature ([5]; aCSF QC 80 ng/mL): 93.50±6.38%; Stability Freeze-thaw ([5]; aCSF QC 80 ng/mL): 97.71±2.91%; Kp [3]: 0.15
94.83±5.41% | 98.18±2.46% | – | – | – | – | – | 933.83 ± 66.51 µg·h/kg | 1560.07 ± 730.91 µg·h/kg | 0.779 ± 0.26 g/h/kg | 6.30 ± 2.22 g/kg | 5.33 ± 1.03 h | 6.27 ± 3.19 h | 625 ± 249 ng·h/mL | 331 ± 43.2 ng·h/mL | 43.5 ± 5.98 ng/mL | 6.33 ± 0.82 h | 6.69 ± 2.25 h | 102.33±8.37% | 101.36±5.89% | CC(C)(O)[C@H]1Cc2cc3ccc(=O)oc3cc2O1 [Compound 12, nodakenetin] | total amount percentage of CSF/plasma [1]: greater than 1%; Stability room temperature ([2]; rat brain QC 200 ng/mL): 97.69±5.38%; Stability Freeze-thaw ([2]; rat brain QC 200 ng/mL): 101.08±9.25%; Stability room temperature ([2]; rat brain QC 400 ng/mL): 95.56±2.64%; Stability room temperature ([5]; aCSF QC 120 ng/mL): 101.14±5.08%; Stability Freeze-thaw ([5]; aCSF QC 120 ng/mL): 92.78±5.37%; Stability room temperature ([5]; aCSF QC 240 ng/mL): 99.91±7.69%; Stability Freeze-thaw ([5]; aCSF QC 240 ng/mL): 95.63±4.23%; Kp [3]: 0.01

Further lines, the compound ahead of its results:

Structure (SMILES) | Stability room temperature ([2]; rat brain QC 5 ng/mL) | Stability Freeze-thaw ([2]; rat brain QC 5 ng/mL) | Stability room temperature ([2]; rat brain QC 80 ng/mL) | Stability Freeze-thaw ([2]; rat brain QC 80 ng/mL) | Stability room temperature ([2]; rat brain QC 160 ng/mL) | Stability Freeze-thaw ([2]; rat brain QC 160 ng/mL) | log BBexpt. [3] | AUC0→t [3] | AUC0→∞ [3] | CLz/F [3] | Vz/F [3] | Tmax [3] | half-life [3] | AUC(0-inf) [1] | AUC(0-t) [1] | Cmax [1] | Tmax [1] | half-life [1] | Stability room temperature ([5]; aCSF QC 5 ng/mL) | Stability Freeze-thaw ([5]; aCSF QC 5 ng/mL) | other results
CC(C)=CCOc1c2ccoc2cc2oc(=O)ccc12 [Compound 4, isoimperatorin] | 91.59±10.74% | 104.96±13.66% | 88.65±10.02% | 93.10±4.03% | 86.85±3.37% | 89.68±3.96% | −0.16 | 15.51 ± 4.82 µg·h/kg | 21.56 ± 14.56 µg·h/kg | 52.86 ± 24.79 g/h/kg | 245.44 ± 108.54 g/kg | 0.33 ± 0.13 h | 3.54 ± 1.35 h | – | – | – | – | – | – | – | MRM response in CSF ([1]; rat CSF after oral APRE): under LLOQ; absorption classification across the in vitro BBB model (in vitro BBB model): moderately-absorbed
CC(C)(O)[C@@H]1Cc2c(ccc3ccc(=O)oc23)O1 [Compound 5, columbianetin] | 97.88±10.06% | 105.83±7.01% | – | – | – | – | – | 13,438.17 ± 2016.06 µg/kg·h | 16,664.04 ± 3662.67 µg/kg·h | 0.11 ± 0.02 g/h/kg | 0.57 ± 0.39 g/kg | 4 ± 1.79 h | 3.92 ± 3.33 h | 4140 ± 602 ng·h/mL | 3370 ± 604 ng·h/mL | 485 ± 91.4 ng/mL | 5 ± 1.1 h | 4.06 ± 2.42 h | 97.23±8.25% | 96.35±9.69% | plasma Cmax [4]: 2240.32 ± 1031.92 ng/mL; Stability room temperature ([2]; rat brain QC 1200 ng/mL): 89.46±3.10%; Stability Freeze-thaw ([2]; rat brain QC 1200 ng/mL): 91.69±3.42%; Stability room temperature ([2]; rat brain QC 2400 ng/mL): 91.21±6.60%; Stability Freeze-thaw ([2]; rat brain QC 2400 ng/mL): 87.85±9.09%; Stability room temperature ([5]; aCSF QC 320 ng/mL): 93.93±2.94%; Stability Freeze-thaw ([5]; aCSF QC 320 ng/mL): 93.46±8.56%; Stability room temperature ([5]; aCSF QC 640 ng/mL): 99.45±9.62%; Stability Freeze-thaw ([5]; aCSF QC 640 ng/mL): 93.87±4.82%; Kp [3]: 0.08
COc1ccc2ccc(=O)oc2c1CC(O)C(C)(C)O (stereo not drawn) [Compound 11, Meranzin hydrate] | 97.21±8.86% | 94.71±4.63% | – | – | – | – | −0.10 | 1752.16 ± 249.82 µg·h/kg | 1948.10 ± 305.84 µg·h/kg | 0.86 ± 0.13 g/h/kg | 4.46 ± 1.60 g/kg | 1.29 ± 1.5 h | 3.64 ± 1.4 h | 754 ± 142 ng·h/mL | 676 ± 108 ng·h/mL | 129 ± 20.2 ng/mL | 2.17 ± 0.98 h | 3.37 ± 0.75 h | 92.02±3.40% | 96.16±10.07% | Stability room temperature ([2]; rat brain QC 200 ng/mL): 96.58±7.80%; Stability Freeze-thaw ([2]; rat brain QC 200 ng/mL): 97.28±10.13%; Stability room temperature ([2]; rat brain QC 400 ng/mL): 95.82±9.16%; Stability Freeze-thaw ([2]; rat brain QC 400 ng/mL): 104.50±7.46%; Stability room temperature ([5]; aCSF QC 120 ng/mL): 99.09±5.56%; Stability Freeze-thaw ([5]; aCSF QC 120 ng/mL): 95.58±7.24%; Stability room temperature ([5]; aCSF QC 240 ng/mL): 103.10±9.99%; Stability Freeze-thaw ([5]; aCSF QC 240 ng/mL): 94.40±4.03%
CC(C)=CCOc1c2occc2cc2ccc(=O)oc12 [imperatorin] | – | – | – | – | – | – | – | – | – | – | – | – | – | – | – | – | – | – | – | – | MRM response in brain [6]: under LLOQ; MRM response in CSF [7]: under LLOQ
